# Experiments:
# PC3 cells = assay: NAMPT Cell Proliferation Assay; assay type: cell-based; conditions: Homo sapiens, PC-3, 120 h, 5 days incubation, cell viability by Cell Titer Glo
# Summary of the method: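 Proliferation of PC3 cells treated 5 days with a 10-fold compound series (top 10 μM) was quantified by Cell Titer Glo luminescence; IC50s were fitted from percent inhibition.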
# NAMPT = NAMPT (Homo sapiens, UniProt P43490); assay: TR-FRET Binding Assay of NAMPT with PRPP; conditions: with 200 μM PRPP and 2.5 mM ATP; 2 nM NAMPT, 2 nM probe, 16 hours equilibration
# Summary of the method: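 TR-FRET probe-displacement binding with 2 nM NAMPT, 2 nM probe and 1 nM Tb-anti-His antibody, run in the presence of 200 μM PRPP and 2.5 mM ATP at 2% DMSO. Equilibrated 16 hours before reading so test compounds could undergo enzymatic modification.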
# [1] = biological target: NAMPT (human, recombinant, C-terminally His-tagged) (Homo sapiens, UniProt P43490); assay: Time-Resolved Fluorescence Resonance Energy Transfer (TR-FRET) Binding Assay of NAMPT; conditions: without substrates; 6.8 nM NAMPT, 200 nM probe, 3 hours equilibration
# Summary of the method: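 11-pt half-log compound series; final 6.8 nM NAMPT, 200 nM OG488 nicotinamide-competitive probe, 1 nM Tb-anti-His Ab, 2% DMSO, HEPES pH 7.5/NaCl/MgCl2/DTT/glycerol buffer. 3 h RT equilibration. Em520/Em495 ratio (Ex 337 nm), control-normalized, 4-parameter fit → IC50.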
# Chain of NAMPT (human, recombinant, C-terminally His-tagged) (P43490 whole entry): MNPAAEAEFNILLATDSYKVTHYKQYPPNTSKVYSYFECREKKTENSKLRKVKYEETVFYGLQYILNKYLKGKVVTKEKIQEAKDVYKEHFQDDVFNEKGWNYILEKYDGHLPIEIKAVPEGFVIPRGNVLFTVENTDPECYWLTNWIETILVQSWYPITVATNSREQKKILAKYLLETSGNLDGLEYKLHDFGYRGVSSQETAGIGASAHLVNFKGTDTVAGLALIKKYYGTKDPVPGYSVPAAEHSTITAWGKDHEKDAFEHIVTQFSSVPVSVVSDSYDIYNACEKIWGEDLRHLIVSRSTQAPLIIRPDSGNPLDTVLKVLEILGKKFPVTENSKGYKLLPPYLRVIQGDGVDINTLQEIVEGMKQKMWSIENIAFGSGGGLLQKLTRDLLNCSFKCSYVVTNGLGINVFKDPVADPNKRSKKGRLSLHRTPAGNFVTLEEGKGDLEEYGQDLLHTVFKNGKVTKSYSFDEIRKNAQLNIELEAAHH
# Chain of NAMPT (P43490 whole entry): as above
SMILES,IC50 (PC3 cells) [nM],IC50 (NAMPT) [nM],IC50 [1] [nM]
"O=C(NCc1ccn2ccnc2c1)c1ccc(OC2CCN(C(=O)C3CCOCC3)CC2)cc1 [Example 420, N-(imidazo[1,2-a]pyridin-7-ylmethyl)-4-{[1-(tetrahydro-2H-pyran-4-ylcarbonyl)piperidin-4-yl]oxy}benzamide]",147,0.226,2710
"O=C(NCc1ccn2ccnc2c1)c1ccc(OC2CCN(C(=O)C3COCCO3)CC2)cc1 (stereo not drawn) [Example 421, 4-{[1-(1,4-dioxan-2-ylcarbonyl)piperidin-4-yl]oxy}-N-(imidazo[1,2-a]pyridin-7-ylmethyl)benzamide]",317,0.271,2450
"O=C(NCc1ccn2ccnc2c1)c1ccc(OC2CCN(C(=O)CC3CCOCC3)CC2)cc1 [Example 422, N-(imidazo[1,2-a]pyridin-7-ylmethyl)-4-{[1-(tetrahydro-2H-pyran-4-ylacetyl)piperidin-4-yl]oxy}benzamide]",109,0.212,1720
"O=C(NCc1ccn2ccnc2c1)c1ccc(OC2CCN(C(=O)CN3CCOCC3)CC2)cc1 [Example 423, N-(imidazo[1,2-a]pyridin-7-ylmethyl)-4-{[1-(morpholin-4-ylacetyl)piperidin-4-yl]oxy}benzamide]",187,0.338,8260
"CC(=O)N1CC(Oc2ccc(NC(=O)NCc3ccn4ccnc4c3)cc2)C1 [Example 424, 1-{4-[(1-acetylazetidin-3-yl)oxy]phenyl}-3-(imidazo[1,2-a]pyridin-7-ylmethyl)urea]",521,0.494,988
"CC(C)C(=O)N1CC(Oc2ccc(NC(=O)NCc3ccn4ccnc4c3)cc2)C1 [Example 425, 1-(imidazo[1,2-a]pyridin-7-ylmethyl)-3-(4-{[1-(2-methylpropanoyl)azetidin-3-yl]oxy}phenyl)urea]",69,0.227,153
"CC(C)(O)C(=O)N1CC(Oc2ccc(NC(=O)NCc3ccn4ccnc4c3)cc2)C1 [Example 430, 1-(4-{[1-(2-hydroxy-2-methylpropanoyl)azetidin-3-yl]oxy}phenyl)-3-(imidazo[1,2-a]pyridin-7-ylmethyl)urea]",88.6,0.264,292
"O=C(NCc1ccn2ccnc2c1)Nc1ccc(OC2CN(C(=O)[C@H]3CCCO3)C2)cc1 [Example 431, 1-(imidazo[1,2-a]pyridin-7-ylmethyl)-3-[4-({1-[(2R)-tetrahydrofuran-2-ylcarbonyl]azetidin-3-yl}oxy)phenyl]urea]",71.9,0.276,301
"CC(C)(C)OC(=O)N1CC[C@@H](Oc2ccc(C(=O)NCc3ccn4ccnc4c3)cc2)C1 [Example 436, tert-butyl (3R)-3-{4-[(imidazo[1,2-a]pyridin-7-ylmethyl)carbamoyl]phenoxy}pyrrolidine-1-carboxylate]",762,0.416,1590
"CC(C)C(=O)N1CCC(Oc2ccc(NC(=O)NCc3ccn4ccnc4c3)cc2)CC1 [Example 442, 1-(imidazo[1,2-a]pyridin-7-ylmethyl)-3-(4-{[1-(2-methylpropanoyl)piperidin-4-yl]oxy}phenyl)urea]",70.7,0.2,301
"O=C(NCc1ccn2ccnc2c1)Nc1ccc(OC2CCN(C(=O)CC3CC3)CC2)cc1 [Example 444, 1-(4-{[1-(cyclopropylacetyl)piperidin-4-yl]oxy}phenyl)-3-(imidazo[1,2-a]pyridin-7-ylmethyl)urea]",69.9,0.244,156
"O=C(NCc1ccn2ccnc2c1)Nc1ccc(OC2CCN(C(=O)[C@H]3CCCO3)CC2)cc1 [Example 448, 1-(imidazo[1,2-a]pyridin-7-ylmethyl)-3-[4-({1-[(2R)-tetrahydrofuran-2-ylcarbonyl]piperidin-4-yl}oxy)phenyl]urea]",67.8,0.176,175

# Other lines, results leading:
IC50 (PC3 cells) [nM],IC50 (NAMPT) [nM],IC50 [1] [nM],SMILES
6.4,0.169,25.6,"CC[C@H](C)C(=O)N1CC(Oc2ccc(NC(=O)NCc3ccn4ccnc4c3)cc2)C1 [Example 426, 1-(imidazo[1,2-a]pyridin-7-ylmethyl)-3-[4-({1-[(2S)-2-methylbutanoyl]azetidin-3-yl}oxy)phenyl]urea]"
62.2,0.27,150,"O=C(NCc1ccn2ccnc2c1)Nc1ccc(OC2CN(C(=O)CC3CC3)C2)cc1 [Example 427, 1-(4-{[1-(cyclopropylacetyl)azetidin-3-yl]oxy}phenyl)-3-(imidazo[1,2-a]pyridin-7-ylmethyl)urea]"
67.5,0.258,87.1,"O=C(NCc1ccn2ccnc2c1)Nc1ccc(OC2CN(C(=O)c3ccccc3)C2)cc1 [Example 428, 1-{4-[(1-benzoylazetidin-3-yl)oxy]phenyl}-3-(imidazo[1,2-a]pyridin-7-ylmethyl)urea]"
18.6,0.396,129,"CC(C)OCC(=O)N1CC(Oc2ccc(NC(=O)NCc3ccn4ccnc4c3)cc2)C1 [Example 429, 1-(imidazo[1,2-a]pyridin-7-ylmethyl)-3-[4-({1-[(propan-2-yloxy)acetyl]azetidin-3-yl}oxy)phenyl]urea]"
36.3,0.33,304,"O=C(NCc1ccn2ccnc2c1)Nc1ccc(OC2CN(C(=O)[C@@H]3CCCO3)C2)cc1 [Example 432, 1-(imidazo[1,2-a]pyridin-7-ylmethyl)-3-[4-({1-[(2S)-tetrahydrofuran2-ylcarbonyl]azetidin-3-yl}oxy)phenyl]urea]"
64.4,0.248,200,"O=C(NCc1ccn2ccnc2c1)Nc1ccc(OC2CN(C(=O)C3CCOCC3)C2)cc1 [Example 433, 1-(imidazo[1,2-a]pyridin-7-ylmethyl)-3-(4-{[1-(tetrahydro-2H-pyran-4-ylcarbonyl)azetidin-3-yl]oxy}phenyl)urea]"
5.59,0.169,102,"O=C(NCc1ccn2ccnc2c1)Nc1ccc(OC2CN(C(=O)C3COCCO3)C2)cc1 (stereo not drawn) [Example 434, 1-(4-{[1-(1,4-dioxan-2-ylcarbonyl)azetidin-3-yl]oxy}phenyl)-3-(imidazo[1,2-a]pyridin-7-ylmethyl)urea]"
20.4,0.191,163,"O=C(NCc1ccn2ccnc2c1)Nc1ccc(OC2CN(C(=O)CC3CCOCC3)C2)cc1 [Example 435, 1-(imidazo[1,2-a]pyridin-7-ylmethyl)-3-(4-{[1-(tetrahydro-2H-pyran-4-ylacetyl)azetidin-3-yl]oxy}phenyl)urea]"
7.02,0.169,29.1,"O=C(NCc1ccn2ccnc2c1)c1ccc(C2CCN(C(=O)c3ccccc3)CC2)cc1 [Example 437, 4-(1-benzoylpiperidin-4-yl)-N-(imidazo[1,2-a]pyridin-7-ylmethyl)benzamide]"
42.5,0.427,145,"O=C(NCc1ccn2ccnc2c1)Nc1ccc(C2=CCN(C(=O)c3ccccc3)CC2)cc1F [Example 438, 1-[4-(1-benzoyl-1,2,3,6-tetrahydropyridin-4-yl)-2-fluorophenyl]-3-(imidazo[1,2-a]pyridin-7-ylmethyl)urea]"
37.5,0.641,453,"O=C(NCc1ccn2ccnc2c1)Nc1ccc(C2=CCN(C(=O)CC3CCOCC3)CC2)cc1F [Example 439, 1-{2-fluoro-4-[1-(tetrahydro-2H-pyran-4-ylacetyl)-1,2,3,6-tetrahydropyridin-4-yl]phenyl}-3-(imidazo[1,2-a]pyridin-7-ylmethyl)urea]"
7.2,0.324,338,"O=C(NCc1ccn2ccnc2c1)c1ccc(C2CCN(C(=O)C3CCC(F)(F)CC3)CC2)cc1 [Example 441, 4-{1-[(4,4-difluorocyclohexyl)carbonyl]piperidin-4-yl}-N-(imidazo[1,2-a]pyridin-7-ylmethyl)benzamide]"
8.96,0.274,138,"CC[C@H](C)C(=O)N1CCC(Oc2ccc(NC(=O)NCc3ccn4ccnc4c3)cc2)CC1 [Example 443, 1-(imidazo[1,2-a]pyridin-7-ylmethyl)-3-[4-({1-[(2S)-2-methylbutanoyl]piperidin-4-yl}oxy)phenyl]urea]"
22.9,0.212,110,"O=C(NCc1ccn2ccnc2c1)Nc1ccc(OC2CCN(C(=O)c3ccccc3)CC2)cc1 [Example 445, 1-{4-[(1-benzoylpiperidin-4-yl)oxy]phenyl}-3-(imidazo[1,2-a]pyridin-7-ylmethyl)urea]"
61.2,0.253,388,"CC(C)OCC(=O)N1CCC(Oc2ccc(NC(=O)NCc3ccn4ccnc4c3)cc2)CC1 [Example 446, 1-(imidazo[1,2-a]pyridin-7-ylmethyl)-3-[4-({1-[(propan-2-yloxy)acetyl]piperidin-4-yl}oxy)phenyl]urea]"
12.5,0.232,261,"CC(C)(O)C(=O)N1CCC(Oc2ccc(NC(=O)NCc3ccn4ccnc4c3)cc2)CC1 [Example 447, 1-(4-{[1-(2-hydroxy-2-methylpropanoyl)piperidin-4-yl]oxy}phenyl)-3-(imidazo[1,2-a]pyridin-7-ylmethyl)urea]"

# Reference: patent publication US9187472B2 (AbbVie Inc., priority 2012, dated 2015)
